Assay results reported in the NIST ThermoML archive (doi:10.1016/j.fluid.2006.10.027).

Assay: xn = mol fraction of the nth substance listed
Conditions: 101 kPa, Liquid, Capillary tube (Ostwald / Ubbelohde) method, x1 = 0.38

CC(C)C(=O)O [2-methylpropanoic acid] + O
Conditions	viscosity [mPa·s]
300.25 K	2.21
300.33 K	2.205
300.36 K	2.204
300.49 K	2.197
300.61 K	2.19
300.66 K	2.187
300.76 K	2.182
300.87 K	2.176
300.96 K	2.171
301.09 K	2.164
301.16 K	2.16
301.26 K	2.154
301.36 K	2.149
301.49 K	2.142
301.56 K	2.138
301.85 K	2.122
302.16 K	2.105
302.46 K	2.088
